This note sets out measurements from ChEMBL document CHEMBL3797183, “Rigid amphipathic nucleosides suppress reproduction of the tick-borne encephalitis virus” (Medchemcomm, 2016).

The subject of data set [1] is Tick-borne encephalitis virus. Nature of the data set: Antiviral activity against Tick-borne encephalitis virus Absettarov infected in PEK cells assessed as reduction in viral plaque formation compounds preincubated with cells for 1 hr followed by addition of virus with subsequent incubation of 1 hr by gentian violet staining. Format: functional, cell-based.
Data set [2] concerns Tick-borne encephalitis virus. Nature of the data set: Antiviral activity against Tick-borne encephalitis virus Absettarov infected in PEK cells assessed as reduction in viral plaque formation compounds preincubated with virus for 1 hr followed by addition of cells with subsequent incubation of 1 hr measured after 6 days by gentian violet staining. Format: functional, cell-based.

Data set [3] deals with Tick-borne encephalitis virus. Put plainly: Antiviral activity against Tick-borne encephalitis virus Absettarov infected in PEK cells assessed as reduction in viral plaque formation incubated for 1 hr measured after 6 days by gentian violet staining. Format: functional, cell-based.
The nature of data set [4]: Cytotoxicity against PEK cells after 7 days. Format: cell-based, Sus scrofa. The note with it: pig.
Data set [5] is described as follows: Cytotoxicity against PEK cells after 24 hrs. Format: cell-based, Sus scrofa. The note with it: pig.
Data set [6] deals with Vesicular stomatitis virus. Nature of the data set: Antiviral activity against VSV infected in African green monkey Vero cells treated for 10 mins measured after 1 to 2 days by crystal violet staining-based assay. Format: functional, organism-based.
A short description of data set [7]: Antiviral activity against Influenza virus A/USSR/90/77 (H1N1) infected in MDCK cells treated for 10 mins measured after 1 hr by neutral red or crystal violet staining-based assay. Format: functional, cell-based, Influenza A virus (A/USSR/90/1977(H1N1)).
Data set [8] deals with Influenza A virus. Nature of the data set: Antiviral activity against Influenza virus A/PC/1/73 (H3N2) infected in MDCK cells treated for 10 mins measured after 1 hr by neutral red or crystal violet staining-based assay. Format: functional, organism-based.
The subject of data set [9] is Influenza A virus. Nature of the data set: Antiviral activity against Influenza virus A/PR/8/34 (H1N1) infected in MDCK cells treated for 10 mins measured after 1 hr by neutral red or crystal violet staining-based assay. Format: functional, organism-based. The conditions noted are these: A/Puerto Rico/8/1934(H1N1).
A further data set has as its system Hepatitis C virus. Put plainly: Antiviral activity against HCV JFH-1 infected in human Huh7.5 cells treated for 10 mins measured after 72 hrs by immunocytochemical assay. The note with it: JFH-1, Huh-7. Format: functional, organism-based, Hepacivirus hominis.
Another data set deals with Human alphaherpesvirus 2. Nature of the data set: Antiviral activity against HSV2 186 infected in African green monkey Vero cells treated for 10 mins measured after 1 to 2 days by crystal violet staining-based assay. Format: functional, cell-based. The note with it: Human alphaherpesvirus 2, strain 186, Vero.
For another data set, the system named is Sindbis virus. Nature of the data set: Antiviral activity against Sindbis virus infected in African green monkey Vero cells treated for 10 mins measured after 1 to 2 days by crystal violet staining-based assay. Format: functional, organism-based.
For a further data set, the system named is Human alphaherpesvirus 1. Put plainly: Antiviral activity against HSV1 KOS infected in African green monkey Vero cells treated for 10 mins measured after 1 to 2 days by crystal violet staining-based assay. The note with it: Human alphaherpesvirus 1, KOS. Format: functional, organism-based.
Data set [10] in a line: Antiviral activity against Influenza virus A/Aichi/2/68 (H3N2) infected in MDCK cells treated for 10 mins measured after 1 hr by neutral red or crystal violet staining-based assay. Format: functional, cell-based, Influenza A virus (A/Aichi/2/1968(H3N2)).
The test system of data set [11] is Tick-borne encephalitis virus. Put plainly: Antiviral activity against 2.2x10^5 PFU Tick-borne encephalitis virus Absettarov infected in PEK cells assessed as inhibition of viral titer at 200 EC50 for simultaneous addition of compound/cells/virus incubated for 1 hr measured after 6 days by gentian violet staining. Format: functional.
Data set [12] concerns Tick-borne encephalitis virus. Nature of the data set: Antiviral activity against 2.2x10^4 PFU Tick-borne encephalitis virus Absettarov infected in PEK cells assessed as inhibition of viral titer at 200 EC50 for simultaneous addition of compound/cells/virus incubated for 1 hr measured after 6 days by gentian violet staining. Format: functional.
The nature of data set [13]: Cytotoxicity against PEK cells assessed as cytopathic effect at 50 uM after 7 days relative to control. Format: cell-based, Sus scrofa. The note with it: pig, 168 h.
Data set [14] relates to Tick-borne encephalitis virus. Put plainly: Antiviral activity against 2 PFU Tick-borne encephalitis virus Absettarov infected in PEK cells assessed as inhibition of viral titer at 200 EC50 for simultaneous addition of compound/cells/virus incubated for 1 hr measured after 6 days by gentian violet staining. Format: functional.
For data set [15], the system named is Tick-borne encephalitis virus. Put plainly: Antiviral activity against 22 PFU Tick-borne encephalitis virus Absettarov infected in PEK cells assessed as inhibition of viral titer at 200 EC50 for simultaneous addition of compound/cells/virus incubated for 1 hr measured after 6 days by gentian violet staining. Format: functional.
The test system of data set [16] is Tick-borne encephalitis virus. Put plainly: Antiviral activity against 2.2x10^2 PFU Tick-borne encephalitis virus Absettarov infected in PEK cells assessed as inhibition of viral titer at 200 EC50 for simultaneous addition of compound/cells/virus incubated for 1 hr measured after 6 days by gentian violet staining. Format: functional.
Data set [17] relates to Tick-borne encephalitis virus. Put plainly: Antiviral activity against 2.2x10^3 PFU Tick-borne encephalitis virus Absettarov infected in PEK cells assessed as inhibition of viral titer at 200 EC50 for simultaneous addition of compound/cells/virus incubated for 1 hr measured after 6 days by gentian violet staining. Format: functional.

As for `O=c1[nH]c(=O)n([C@H]2C[C@H](O)[C@@H](CO)O2)cc1C#Cc1ccc2ccc3cccc4ccc1c2c34`, the EC50 in data set [1] came to 42000 nM; in data set [2], 600 nM; in [3] it was 980 nM. Further, the cytotoxic concentration (CC50) at 168 h in [4] was greater than 50000 nM. In addition, the CC50 at 24 h in data set [5] is greater than 50000 nM.

`O=c1[nH]c(=O)n([C@@H]2O[C@H](CO)[C@@H](O)[C@@H]2O)cc1C#Cc1ccc2c3cccc4cccc(c5cccc1c52)c43`: the IC50 (in [6]; in data set [7]; in the data set on Influenza A virus [8]; in the data set on Influenza A virus [9]; in the data set with Hepatitis C virus; in the data set with Human alphaherpesvirus 2) was 2 nM in each case. The half-inhibitory concentration (IC50) (in the data set with Sindbis virus; in the data set with Human alphaherpesvirus 1; in [10]) was 2 nM throughout. Also, the EC50 worked out at 2700 nM in data set [1], 40 nM in [2] and 18 nM in data set [3]. This compound also returned a CC50 at 168 h in data set [4] of 4400 nM. In data set [5], this compound returned a CC50 at 24 h greater than 50000 nM.

For `O=c1[nH]c(=O)n([C@H]2C[C@H](O)[C@@H](CO)O2)cc1C#CCOCc1ccc2c3cccc4cccc(c5cccc1c52)c43`, the “inhibition (INH)” value is recorded as 99.9965% in [11]; 99.9988% in data set [12]; 100% in [14]; 100% in [15]; 100% in data set [16]; 100% in data set [17]. For the same compound, the Activity in data set [13] is on record as 25%. The EC50 was greater than 50000 nM in data set [1] and 500 nM in [3]. This compound came in with a 50% cytotoxic concentration (CC50) at 168 h in data set [4] greater than 50000 nM. The compound further came in with a 50% cytotoxic concentration (CC50) at 24 h in [5] greater than 50000 nM.

As for `O=c1[nH]c(=O)n([C@H]2C[C@H](O)[C@@H](CO)O2)cc1C#Cc1ccc2c3cccc4cccc(c5cccc1c52)c43`, the “inhibition (INH)” value in [11] is recorded as 99.9995%; in data set [12], 99.9988%; in data set [14], 100%; in data set [15] it was 100%; in data set [16], 100%; in data set [17], 100%. Moreover, the IC50 (in data set [6]; in [7]; with Influenza A virus [8]; in the data set with Influenza A virus [9]; with Hepatitis C virus; with Human alphaherpesvirus 2) was 2 nM each time. The IC50 (in the data set on Sindbis virus; in the data set with Human alphaherpesvirus 1; in data set [10]) was 2 nM throughout. For the same compound, the Activity in data set [13] is given as 25%. The EC50 in data set [1] stood at 1560 nM; in [2] it was 40 nM; in data set [3], 24 nM. In addition, in data set [4], the CC50 at 168 h was greater than 50000 nM. For the same compound, in data set [5], the 50% cytotoxic concentration (CC50) at 24 h is greater than 50000 nM.
